Source: ChEMBL document CHEMBL4390652, “Design, biological evaluation and X-ray crystallography of nanomolar multifunctional ligands targeting simultaneously acetylcholinesterase and glycogen synthase kinase-3” (Eur J Med Chem, 2019)

Experiments:
[1] = test system: Epidermal growth factor receptor (Homo sapiens), P00533 [G719S]; assay: Binding affinity to human partial length EGFR G719S mutant (R669 to V1011 residues) expressed in bacterial expression system assessed as residual binding level at 10 uM by Kinomescan method relative to control
[2] = target: Serine/threonine-protein kinase Nek1 (Homo sapiens) (UniProt Q96PY6); assay: Binding affinity to wild-type human partial length NEK1 (M1 to K278 residues) expressed in bacterial expression system assessed as residual binding level at 10 uM by Kinomescan method relative to control
[3] = target: Tyrosine-protein kinase receptor UFO (Homo sapiens) (UniProt P30530); assay: Binding affinity to wild-type human partial length AXL (R497 to Y821 residues) expressed in bacterial expression system assessed as residual binding level at 10 uM by Kinomescan method relative to control
[4] = target: Interleukin-1 receptor-associated kinase 3 (Homo sapiens) (UniProt Q9Y616); assay: Binding affinity to wild-type human partial length IRAK3 (V147 to E596 residues) expressed in bacterial expression system assessed as residual binding level at 10 uM by Kinomescan method relative to control
[5] = target: Tyrosine-protein kinase BTK (Homo sapiens) (UniProt Q06187); assay: Binding affinity to wild-type human full length BTK (M1 to S659 residues) expressed in mammalian expression system assessed as residual binding level at 10 uM by Kinomescan method relative to control
[6] = test system: Tyrosine-protein kinase ABL1 (Homo sapiens), P00519 [H396P]; assay: Binding affinity to human non-phosphorylated ABL1 H396P mutant (S229 to K512 residues) expressed in mammalian expression system assessed as residual binding level at 10 uM by Kinomescan method relative to control
[7] = target: STE20/SPS1-related proline-alanine-rich protein kinase (Homo sapiens) (UniProt Q9UEW8); assay: Binding affinity to wild-type human partial length STK39 (P43 to I357 residues) expressed in mammalian expression system assessed as residual binding level at 10 uM by Kinomescan method relative to control
[8] = target: Mitogen-activated protein kinase 10 (Homo sapiens) (UniProt P53779); assay: Binding affinity to wild-type human partial length JNK3 (V28 to Q422 residues) expressed in mammalian expression system assessed as residual binding level at 10 uM by Kinomescan method relative to control
[9] = target: Serine/threonine-protein kinase LATS1 (Homo sapiens) (UniProt O95835); assay: Binding affinity to wild-type human partial length LATS1 (Q678 to V1130 residues) expressed in bacterial expression system assessed as residual binding level at 10 uM by Kinomescan method relative to control
[10] = target: Cyclin-dependent kinase 2 homolog (Plasmodium falciparum (isolate 3D7)) (UniProt P61075); assay: Binding affinity to wild-type Plasmodium falciparum full length PK5 (M1 to N288 residues) expressed in mammalian expression system assessed as residual binding level at 10 uM by Kinomescan method relative to control
[11] = test system: ALK tyrosine kinase receptor (Homo sapiens), Q9UM73 [C1156Y]; assay: Binding affinity to wild-type human partial length ALK C1156Y mutant (I1088 to E1409 residues) expressed in mammalian expression system assessed as residual binding level at 10 uM by Kinomescan method relative to control
[12] = target: Serine/threonine-protein kinase 24 (Homo sapiens) (UniProt Q9Y6E0); assay: Binding affinity to wild-type human partial length MST3 (A30 to S311 residues) expressed in bacterial expression system assessed as residual binding level at 10 uM by Kinomescan method relative to control
[13] = target: Ephrin type-B receptor 1 (Homo sapiens) (UniProt P54762); assay: Binding affinity to wild-type human partial length EPHB1 (P589 to T911 residues) expressed in bacterial expression system assessed as residual binding level at 10 uM by Kinomescan method relative to control
[14] = target: Dual specificity tyrosine-phosphorylation-regulated kinase 1B (Homo sapiens) (UniProt Q9Y463); assay: Binding affinity to wild-type human full length DYRK1B (M1 to S629 residues) expressed in bacterial expression system assessed as residual binding level at 10 uM by Kinomescan method relative to control
[15] = test system: Tyrosine-protein kinase ABL1 (Homo sapiens), P00519 [F317I]; assay: Binding affinity to human non-phosphorylated ABL1 F317I mutant (S229 to K512 residues) expressed in mammalian expression system assessed as residual binding level at 10 uM by Kinomescan method relative to control
[16] = target: Peripheral plasma membrane protein CASK (Homo sapiens) (UniProt O14936); assay: Binding affinity to wild-type human partial length CASK (M1 to H315 residues) expressed in mammalian expression system assessed as residual binding level at 10 uM by Kinomescan method relative to control
[17] = target: Tyrosine-protein kinase JAK3 (Homo sapiens) (UniProt P52333); assay: Binding affinity to wild-type human partial length JAK3 JH1 catalytic domain (I781 to S1124 residues) expressed in mammalian expression system assessed as residual binding level at 10 uM by Kinomescan method relative to control
[18] = target: Dual specificity mitogen-activated protein kinase kinase 1 (Homo sapiens) (UniProt Q02750); assay: Binding affinity to wild-type human full length MEK1 (M1 to V393 residues) expressed in mammalian expression system assessed as residual binding level at 10 uM by Kinomescan method relative to control
[19] = target: Dual specificity protein kinase CLK2 (Homo sapiens) (UniProt P49760); assay: Binding affinity to wild-type human partial length CLK2 (D144 to R498 residues) expressed in bacterial expression system assessed as residual binding level at 10 uM by Kinomescan method relative to control
[20] = test system: Phosphatidylinositol 4,5-bisphosphate 3-kinase catalytic subunit alpha isoform (Homo sapiens), P42336 [M1043I]; assay: Binding affinity to human partial length PIK3CA M1043I mutant (R108 to N1068 residues) expressed in mammalian expression system assessed as residual binding level at 10 uM by Kinomescan method relative to control
[21] = test system: Mast/stem cell growth factor receptor Kit (Homo sapiens), P10721 [L576P]; assay: Binding affinity to human partial length KIT L576P mutant (Y545 to D952 residues) expressed in bacterial expression system assessed as residual binding level at 10 uM by Kinomescan method relative to control
[22] = test system: Receptor-type tyrosine-protein kinase FLT3 (Homo sapiens), P36888 [D835V]; assay: Binding affinity to human partial length FLT3 D835V mutant (V592 to Y969 residues) expressed in bacterial expression system assessed as residual binding level at 10 uM by Kinomescan method relative to control
[23] = target: Wee1-like protein kinase (Homo sapiens) (UniProt P30291); assay: Binding affinity to wild-type human partial length WEE1 (M291 to K575 residues) expressed in bacterial expression system assessed as residual binding level at 10 uM by Kinomescan method relative to control
[24] = target: Serine/threonine-protein kinase WNK2 (Homo sapiens) (UniProt Q9Y3S1); assay: Binding affinity to wild-type human partial length WNK2 (V47 to D482 residues) expressed in mammalian expression system assessed as residual binding level at 10 uM by Kinomescan method relative to control

Tyrosine-protein kinase BTK (Homo sapiens), sequence (Q06187 whole entry, the tested form may be a part): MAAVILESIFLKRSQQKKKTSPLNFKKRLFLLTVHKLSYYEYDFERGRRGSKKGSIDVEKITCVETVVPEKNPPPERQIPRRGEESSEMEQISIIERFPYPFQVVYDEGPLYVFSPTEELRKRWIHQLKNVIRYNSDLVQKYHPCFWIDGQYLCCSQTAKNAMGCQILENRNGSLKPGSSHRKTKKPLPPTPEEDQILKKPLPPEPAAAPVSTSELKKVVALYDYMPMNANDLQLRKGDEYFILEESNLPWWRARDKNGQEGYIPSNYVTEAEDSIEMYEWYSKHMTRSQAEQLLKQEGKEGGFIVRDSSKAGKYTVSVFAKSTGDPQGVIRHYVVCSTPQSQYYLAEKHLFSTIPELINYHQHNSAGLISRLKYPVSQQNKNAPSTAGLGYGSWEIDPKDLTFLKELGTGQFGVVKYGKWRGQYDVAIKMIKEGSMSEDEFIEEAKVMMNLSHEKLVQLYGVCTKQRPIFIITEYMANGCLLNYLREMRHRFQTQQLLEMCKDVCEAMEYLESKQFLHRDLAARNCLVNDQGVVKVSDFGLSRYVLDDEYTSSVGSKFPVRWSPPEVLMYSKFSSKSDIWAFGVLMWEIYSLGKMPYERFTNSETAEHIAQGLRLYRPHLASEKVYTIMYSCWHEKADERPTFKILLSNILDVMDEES
Wee1-like protein kinase (Homo sapiens), sequence (P30291 whole entry, looked up, the tested form may be a part): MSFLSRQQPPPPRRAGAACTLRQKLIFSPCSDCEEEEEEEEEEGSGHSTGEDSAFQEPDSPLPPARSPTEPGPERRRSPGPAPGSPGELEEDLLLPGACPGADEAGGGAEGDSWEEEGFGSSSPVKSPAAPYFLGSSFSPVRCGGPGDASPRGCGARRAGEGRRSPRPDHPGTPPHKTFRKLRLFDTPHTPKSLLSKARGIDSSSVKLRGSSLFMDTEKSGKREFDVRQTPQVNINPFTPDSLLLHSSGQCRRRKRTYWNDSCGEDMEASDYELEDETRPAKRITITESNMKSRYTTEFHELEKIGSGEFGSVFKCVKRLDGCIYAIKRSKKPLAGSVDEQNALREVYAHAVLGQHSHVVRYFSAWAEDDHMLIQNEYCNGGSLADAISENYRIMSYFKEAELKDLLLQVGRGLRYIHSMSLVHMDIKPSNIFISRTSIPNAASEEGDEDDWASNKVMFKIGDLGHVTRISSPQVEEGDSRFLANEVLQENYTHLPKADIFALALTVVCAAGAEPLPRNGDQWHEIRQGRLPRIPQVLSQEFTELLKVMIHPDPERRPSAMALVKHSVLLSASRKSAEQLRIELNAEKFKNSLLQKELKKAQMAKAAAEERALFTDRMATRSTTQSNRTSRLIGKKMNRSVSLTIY
Serine/threonine-protein kinase Nek1 (Homo sapiens), sequence (Q96PY6 whole entry, the tested form may be a part): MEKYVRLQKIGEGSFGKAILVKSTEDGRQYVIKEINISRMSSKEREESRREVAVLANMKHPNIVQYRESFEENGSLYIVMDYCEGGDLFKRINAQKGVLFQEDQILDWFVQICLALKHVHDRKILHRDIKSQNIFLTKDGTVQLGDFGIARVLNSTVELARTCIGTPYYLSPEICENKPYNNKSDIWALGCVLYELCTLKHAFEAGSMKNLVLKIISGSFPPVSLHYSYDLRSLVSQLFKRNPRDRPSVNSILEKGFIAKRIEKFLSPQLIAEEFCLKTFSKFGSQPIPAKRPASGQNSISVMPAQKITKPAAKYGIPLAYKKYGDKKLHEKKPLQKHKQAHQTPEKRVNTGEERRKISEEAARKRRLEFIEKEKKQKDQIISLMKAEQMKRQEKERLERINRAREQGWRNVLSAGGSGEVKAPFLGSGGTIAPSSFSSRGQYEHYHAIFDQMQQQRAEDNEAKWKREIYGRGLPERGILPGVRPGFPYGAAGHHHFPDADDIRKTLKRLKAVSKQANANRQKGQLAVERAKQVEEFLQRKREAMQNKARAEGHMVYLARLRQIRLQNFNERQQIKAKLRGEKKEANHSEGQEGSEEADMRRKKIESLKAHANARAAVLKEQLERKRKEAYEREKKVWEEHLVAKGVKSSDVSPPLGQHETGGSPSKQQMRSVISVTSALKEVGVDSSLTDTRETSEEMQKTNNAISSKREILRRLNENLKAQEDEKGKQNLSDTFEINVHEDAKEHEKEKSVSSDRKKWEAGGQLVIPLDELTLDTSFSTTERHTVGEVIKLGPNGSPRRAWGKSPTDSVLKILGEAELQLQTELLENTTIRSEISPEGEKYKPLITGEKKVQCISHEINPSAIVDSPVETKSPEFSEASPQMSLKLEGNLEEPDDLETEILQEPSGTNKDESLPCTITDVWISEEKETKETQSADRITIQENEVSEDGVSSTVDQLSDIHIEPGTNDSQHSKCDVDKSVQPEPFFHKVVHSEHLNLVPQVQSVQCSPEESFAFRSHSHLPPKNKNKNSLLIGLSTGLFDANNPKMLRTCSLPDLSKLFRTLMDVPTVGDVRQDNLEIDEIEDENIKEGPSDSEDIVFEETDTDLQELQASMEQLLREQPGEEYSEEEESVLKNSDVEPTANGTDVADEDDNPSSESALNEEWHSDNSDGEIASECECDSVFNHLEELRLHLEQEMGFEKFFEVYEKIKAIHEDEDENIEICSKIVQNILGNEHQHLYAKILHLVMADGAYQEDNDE
Mast/stem cell growth factor receptor Kit (Homo sapiens), P10721 [L576P], sequence (P10721 whole entry L576P, the tested form may be a part): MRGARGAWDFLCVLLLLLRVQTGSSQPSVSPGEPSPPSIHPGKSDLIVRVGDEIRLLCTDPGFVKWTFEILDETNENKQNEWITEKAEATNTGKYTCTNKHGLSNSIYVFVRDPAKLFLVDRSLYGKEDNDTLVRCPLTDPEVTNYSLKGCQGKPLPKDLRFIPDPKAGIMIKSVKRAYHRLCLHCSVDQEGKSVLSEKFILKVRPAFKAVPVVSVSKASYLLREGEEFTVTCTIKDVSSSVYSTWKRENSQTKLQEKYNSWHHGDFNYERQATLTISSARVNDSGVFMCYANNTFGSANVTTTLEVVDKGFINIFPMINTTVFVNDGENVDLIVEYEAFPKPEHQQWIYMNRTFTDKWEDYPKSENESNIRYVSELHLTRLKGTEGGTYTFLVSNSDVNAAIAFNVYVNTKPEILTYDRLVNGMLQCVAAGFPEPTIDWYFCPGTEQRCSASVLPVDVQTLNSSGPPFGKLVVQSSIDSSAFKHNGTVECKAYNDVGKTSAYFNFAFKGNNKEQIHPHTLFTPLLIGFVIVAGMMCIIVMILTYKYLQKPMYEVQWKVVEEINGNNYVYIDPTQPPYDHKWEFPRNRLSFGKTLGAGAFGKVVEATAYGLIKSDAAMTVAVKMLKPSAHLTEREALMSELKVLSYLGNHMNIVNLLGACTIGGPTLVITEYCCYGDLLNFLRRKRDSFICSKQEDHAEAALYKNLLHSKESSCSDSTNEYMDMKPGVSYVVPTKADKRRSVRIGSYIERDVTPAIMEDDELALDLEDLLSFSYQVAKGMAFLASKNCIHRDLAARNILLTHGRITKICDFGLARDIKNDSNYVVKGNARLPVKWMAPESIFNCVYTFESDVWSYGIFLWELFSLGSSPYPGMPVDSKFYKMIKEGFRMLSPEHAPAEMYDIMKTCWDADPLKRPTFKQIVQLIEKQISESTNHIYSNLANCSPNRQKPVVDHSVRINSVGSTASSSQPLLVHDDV
Dual specificity mitogen-activated protein kinase kinase 1 (Homo sapiens), sequence (Q02750 whole entry, the tested form may be a part): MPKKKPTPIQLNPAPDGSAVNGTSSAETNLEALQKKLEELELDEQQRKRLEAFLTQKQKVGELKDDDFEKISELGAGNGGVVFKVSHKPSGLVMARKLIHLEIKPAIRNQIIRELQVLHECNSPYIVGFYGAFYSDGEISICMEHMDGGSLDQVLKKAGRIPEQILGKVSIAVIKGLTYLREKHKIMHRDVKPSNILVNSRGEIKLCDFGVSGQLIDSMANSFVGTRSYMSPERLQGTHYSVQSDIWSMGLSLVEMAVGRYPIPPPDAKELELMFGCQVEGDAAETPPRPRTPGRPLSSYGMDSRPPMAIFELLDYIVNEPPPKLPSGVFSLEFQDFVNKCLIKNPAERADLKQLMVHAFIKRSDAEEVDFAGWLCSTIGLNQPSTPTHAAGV
Ephrin type-B receptor 1 (Homo sapiens), sequence (P54762 whole entry, the tested form may be a part): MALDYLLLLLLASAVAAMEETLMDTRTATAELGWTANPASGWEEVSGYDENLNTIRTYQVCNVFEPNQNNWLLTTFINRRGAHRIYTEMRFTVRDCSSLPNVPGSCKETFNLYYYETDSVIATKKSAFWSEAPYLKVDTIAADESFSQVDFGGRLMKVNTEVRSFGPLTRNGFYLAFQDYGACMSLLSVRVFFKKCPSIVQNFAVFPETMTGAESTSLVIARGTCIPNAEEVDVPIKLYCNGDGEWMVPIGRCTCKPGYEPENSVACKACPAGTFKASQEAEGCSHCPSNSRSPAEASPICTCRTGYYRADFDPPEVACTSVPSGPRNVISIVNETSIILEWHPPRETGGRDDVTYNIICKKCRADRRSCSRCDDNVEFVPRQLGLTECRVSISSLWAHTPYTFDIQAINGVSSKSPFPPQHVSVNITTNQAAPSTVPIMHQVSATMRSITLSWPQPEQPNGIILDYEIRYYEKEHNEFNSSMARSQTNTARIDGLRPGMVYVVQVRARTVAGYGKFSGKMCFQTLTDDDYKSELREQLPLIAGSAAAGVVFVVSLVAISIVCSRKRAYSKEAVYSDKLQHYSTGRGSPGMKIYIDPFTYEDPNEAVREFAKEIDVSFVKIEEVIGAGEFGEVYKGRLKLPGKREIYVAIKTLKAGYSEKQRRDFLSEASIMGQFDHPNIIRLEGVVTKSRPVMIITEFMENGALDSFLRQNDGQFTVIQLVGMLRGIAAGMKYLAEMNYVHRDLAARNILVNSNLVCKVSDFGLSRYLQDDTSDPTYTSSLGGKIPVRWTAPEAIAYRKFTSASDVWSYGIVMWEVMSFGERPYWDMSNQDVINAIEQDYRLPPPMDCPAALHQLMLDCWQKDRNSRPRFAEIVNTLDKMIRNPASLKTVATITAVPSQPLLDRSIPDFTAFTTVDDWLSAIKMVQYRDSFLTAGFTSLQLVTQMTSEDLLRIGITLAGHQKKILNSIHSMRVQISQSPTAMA

Molecule `O=C(Nc1cc(-c2cn(CCNc3c4c(nc5ccccc35)CCCC4)nn2)ccn1)Nc1cccc2c1C1CCCCN1C2=O` (racemic) has an Activity [1] of 94%, an Activity [2] of 80% and an Activity [3] of 5.5%. For the same molecule, the Activity [4] was 16%, the Activity [5] was 100% and the Activity [6] was 1.8%. The Activity [7] was 100%, the Activity [8] was 1.3% and the Activity [9] was 90%. It also gave an Activity [10] of 100%, an Activity [11] of 100% and an Activity [12] of 59%. The Activity [13] was 67%, the Activity [14] was 3.7% and the Activity [15] was 100%. For the same molecule, the Activity [16] was 65%, the Activity [17] was 0.28% and the Activity [18] was 7.6%. The Activity [19] was 24%, the Activity [20] was 100% and the Activity [21] was 0%. For the same molecule, the Activity [22] was 0.04%, the Activity [23] was 100% and the Activity [24] was 100%.
